Patent publication US8173689B2 (Novartis AG, priority 2006, dated 2012)
Where two headings read alike, the source gives them in different places.

How the values were obtained:
[1] = target: T1, cytoplasmic domain of the human CSF-1R (Homo sapiens, UniProt P07333); experiment: In vitro kinase assay for colony stimulating factor-1 receptor (AlphaScreen); type: biochemical; details: tested at about 1 μM, read-out: CSF-1R percent inhibition
T1 construct: Recombinant protein corresponding to the cytoplasmic domain of the human CSF-1R; purchased Invitrogen Corporation, Carlsbad, Calif; PV3249
T1 sequence (P07333 539-972 limits assumed): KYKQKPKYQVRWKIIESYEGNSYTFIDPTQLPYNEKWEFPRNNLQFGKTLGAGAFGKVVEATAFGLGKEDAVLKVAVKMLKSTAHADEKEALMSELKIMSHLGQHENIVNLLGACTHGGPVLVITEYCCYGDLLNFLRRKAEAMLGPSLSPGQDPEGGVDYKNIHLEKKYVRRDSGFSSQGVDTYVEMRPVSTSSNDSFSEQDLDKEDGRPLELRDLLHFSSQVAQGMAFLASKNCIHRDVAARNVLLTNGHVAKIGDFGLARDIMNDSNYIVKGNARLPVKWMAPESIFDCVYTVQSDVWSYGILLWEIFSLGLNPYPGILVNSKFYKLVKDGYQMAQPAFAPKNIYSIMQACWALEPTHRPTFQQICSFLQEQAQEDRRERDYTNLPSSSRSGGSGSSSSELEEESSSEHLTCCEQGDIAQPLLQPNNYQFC
In short: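 Tyrosine phosphorylation of a peptide substrate by 4 nM recombinant cytoplasmic-domain enzyme is measured at 1 μM ATP in Mn2+/Mg2+-containing Hepes buffer, pH 7.5. Detection uses PT66 AlphaScreen beads after overnight incubation.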

kinase domain of cKIT = target: T2, kinase domain of cKIT (Homo sapiens, UniProt P10721); experiment: Inhibition of cKIT kinase signaling in an in vitro biochemical assay (alphascreen); details: tested at about 1 μM, read-out: cKit percent inhibition
T2 construct: The kinase domain of cKIT was assayed in 50 mM Hepes; purchased Upstate 14-559

kinase domain of PDGFRβ = target: T3, kinase domain of PDGFRβ (Homo sapiens, UniProt P09619); experiment: Inhibition of PDGFRb kinase signaling in an in vitro biochemical assay (alphascreen); details: tested at about 1 μM, read-out: PDGFRβ percent inhibition
T3 construct: The kinase domain of PDGFRβ was assayed in 50 mM Hepes; purchased Invitrogen P3082

[2] = tested on: MNFS60 (murine AML cells); experiment: Cell viability assay in MCSF dependent MNFS60 cells (Cell Titer Glo); type: cell-based; details: Mus musculus, tested at about 1 μM, read-out: M-NFS-60 CP percent inhibition
In short: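 MNFS60 cells grown with 10 ng/ml MCSF (final) were exposed for 72 hrs at 37° C., 5% CO2 to 3-fold serial compound dilutions. Viable cells were measured by Cell Titer Glo luminescence, in triplicate, and EC50s were derived by curve fitting.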

T2 sequence (P10721 589-937 limits assumed): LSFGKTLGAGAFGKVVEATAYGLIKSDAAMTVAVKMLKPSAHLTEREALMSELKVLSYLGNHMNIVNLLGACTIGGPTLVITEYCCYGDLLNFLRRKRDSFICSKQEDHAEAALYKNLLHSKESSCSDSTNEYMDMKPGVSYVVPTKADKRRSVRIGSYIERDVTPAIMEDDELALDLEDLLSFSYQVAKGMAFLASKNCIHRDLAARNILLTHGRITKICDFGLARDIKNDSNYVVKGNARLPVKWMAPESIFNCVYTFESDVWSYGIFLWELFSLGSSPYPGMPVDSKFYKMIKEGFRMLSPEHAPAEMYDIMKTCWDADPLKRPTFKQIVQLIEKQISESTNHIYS
T3 sequence (P09619 600-962 limits assumed): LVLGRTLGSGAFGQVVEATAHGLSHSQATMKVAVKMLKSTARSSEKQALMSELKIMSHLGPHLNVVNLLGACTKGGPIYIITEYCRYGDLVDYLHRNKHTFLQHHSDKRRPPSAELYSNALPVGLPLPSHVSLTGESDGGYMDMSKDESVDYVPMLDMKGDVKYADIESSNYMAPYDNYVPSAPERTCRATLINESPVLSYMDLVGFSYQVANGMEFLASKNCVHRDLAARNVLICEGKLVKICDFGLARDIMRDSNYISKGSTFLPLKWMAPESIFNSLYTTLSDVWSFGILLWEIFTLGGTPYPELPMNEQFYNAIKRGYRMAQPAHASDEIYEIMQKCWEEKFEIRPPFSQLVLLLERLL

inhibition at 1 µM ([1]; compounds of Table 3) | inhibition at 1 µM [1] | inhibition at 1 µM (kinase domain of cKIT; compounds of Table 3) | inhibition at 1 µM (kinase domain of PDGFRβ; compounds of Table 3) | inhibition at 1 µM (kinase domain of PDGFRβ) | inhibition at 1 µM (kinase domain of cKIT) | Compound | inhibition at 1 µM ([2]; compounds of Table 3) | inhibition at 1 µM ([2]; MCSF dependent MNFS60 cells) | inhibition at 1 µM ([2]; MNFS60 cells)
100% | 21% | 6% | 21% | 0% | – | CNC(=O)c1cc(Oc2ccc3nc(NC4CCC4)oc3c2)ccn1 [Compound 22, 4-(2-Cyclobutylamino-benzooxazol-6-yloxy)-pyridine-2-carboxylic acid methylamide] | 36% | – | –
100% | – | 10% | 15% | – | – | CNC(=O)c1cc(Oc2ccc3nc(NCCC4CC4)sc3c2)ccn1 [Example 290, 4-(2-(2-cyclopropylethylamino)benzo[d]thiazol-6-yloxy)-N-methylpicolinamide] | 2% | – | –
99% | – | 16% | 23% | – | – | CNC(=O)c1cc(Oc2ccc3nc(N[C@@H]4CC=CC[C@@H]4C(N)=O)sc3c2)ccn1 [Example 217] | 0% | – | –
– | 100% | – | – | 28% | 59% | COCCNc1cc(Oc2ccc3nc(NCC4CCCCC4)sc3c2)ccn1 [Example 343, N-(cyclohexylmethyl)-6-(2-(2-methoxyethylamino)pyridin-4-yloxy)benzo[d]thiazol-2-amine] | – | 57% | –
100% | – | 85% | 84% | – | – | COC[C@H](Nc1nc2ccc(Oc3ccnc4ccccc34)cc2s1)[C@@H](O)c1ccccc1 [Example 233, (1S,2S)-3-methoxy-1-phenyl-2-(6-(quinolin-4-yloxy)benzo[d]thiazol-2-ylamino)propan-1-ol] | 59% | – | –
– | 99% | – | – | 2% | 15% | CNC(=O)c1cc(Oc2ccc3nc(NCCc4cccc5c4OCCO5)oc3c2)ccn1 [Compound 123, 4-{2-[2-(2,3-Dihydro-benzo-[1,4]dioxin-5-yl)-ethylamino]-benzooxazol-6-yloxy}-pyridine-2-carboxylic acid methylamide] | – | – | 0%
– | 94% | – | – | 14% | 23% | CNC(=O)c1cc(Oc2ccc3nc(N[C@H]4CCCN(C(=O)c5ccccc5)C4)sc3c2)ccn1 [Example 336, (S)-4-(2-(1-benzoylpiperidin-3-ylamino)benzo[d]thiazol-6-yloxy)-N-methylpicolinamide] | – | 17% | –
– | 100% | – | – | 8% | 24% | CNc1cc(Oc2ccc3nc(N[C@@H]4CCCC[C@H]4O)sc3c2)ccn1 [Example 368, (1R,2R)-2-(6-(2-(methylamino)pyridin-4-yloxy)benzo[d]thiazol-2-ylamino)cyclohexanol] | – | 12% | –
– | 95% | – | – | 0% | 14% | CNC(=O)c1cc(Oc2ccc3nc(NCC4CCCN(C(=O)NC(C)C)C4)sc3c2)ccn1 (stereo not shown) [Example 337, 4-(2-((1-(isopropylcarbamoyl)piper-idin-3-yl)methylamino)benzo[d]thiazol-6-yloxy)-N-methylpicolinamide] | – | 19% | –
99% | – | 28% | 2% | – | – | C[C@H](Nc1nc2ccc(Oc3ccnc(C(=O)NN(C)C)c3)cc2s1)C1CCCCC1 [Example 289, (S)-4-(2-(1-cyclohexylethylamino)benzo[d]thiazol-6-yloxy)-N',N'-dimethylpicolinohydrazide] | 0% | – | –
– | 99% | – | – | 100% | 100% | CNC(=O)c1cc(Oc2ccc3nc(NCc4ccccc4N(C)C)sc3c2)ccn1 [Compound 144, 4-[2-(2-Dimethylamino-benzylamino)-benzothiazol-6-yloxy]-pyridine-2-carboxylic acid methylamide] | – | – | 100%
– | 100% | – | – | 43% | 27% | CNC(=O)c1cc(Oc2ccc3nc(N[C@H]4[C@H]5CC[C@H](C5)[C@H]4CO)sc3c2)ccn1 [Example 325, 4-(2-((1S,3R,4R)-3-(hydroxymethyl)bicyclo[2.2.1]heptan-2-ylamino)benzo[d]thiazol-6-yloxy)-N-methylpicolinamide] | – | 66% | –
– | 98% | – | – | 0% | 17% | CNC(=O)c1cc(Oc2ccc3nc(NCCc4cccnc4)sc3c2)ccn1 [Example 315, N-methyl-4-(2-(2-(pyridin-3-yl)ethylamino)benzo[d]thiazol-6-yloxy)picolinamide] | – | 27% | –
– | 100% | – | – | 73% | 77% | CC[C@H](C)[C@@H](CO)Nc1nc2ccc(Oc3ccnc(-c4cnn(C)c4)c3)cc2s1 [Example 349, (2S,3S)-3-methyl-2-(6-(2-(1-methyl-1H-pyrazol-4-yl)pyridin-4-yloxy)benzo[d]thiazol-2-ylamino)pentan-1-ol] | – | 100% | –
– | 99% | – | – | 0% | 12% | CNC(=O)c1cc(Oc2ccc3nc(NCc4cc(OC)ccc4OC)oc3c2)ccn1 [Compound 83, 4-[2-(2,5-Dimethoxy-benzyl-amino)-benzooxazol-6-yloxy]-pyridine-2-carboxylic acid methylamide] | – | – | 26%
100% | – | 100% | 6% | – | – | CC(C)CCNc1nc2ccc(Oc3ccnc4ccccc34)cc2s1 [Example 253, N-isopentyl-6-(quinolin-4-yloxy)benzo[d]thiazol-2-amine] | 86% | – | –
– | 100% | – | – | 18% | 100% | CNC(=O)c1cc(Oc2ccc3nc(NCc4c(F)cccc4OC)oc3c2)ccn1 [Compound 116, 4-[2-(2-Fluoro-6-methoxy-benzylamino)-benzooxazol-6-yloxy]-pyridine-2-carboxylic acid methylamide] | – | – | 10%
– | 100% | – | – | 0% | 1% | CNC(=O)c1cc(Oc2ccc3nc(NCC4CCOCC4)sc3c2)ccn1 [Compound 141, 4-{2-[(tetrahydro-pyran-4-ylmethyl)-amino]-benzothiazol-6-yloxy}-pyridine-2-carboxylic acid methylamide] | – | – | 22%
– | 98% | – | – | 85% | 48% | CNC(=O)c1cc(Oc2ccc3nc(Nc4cccc(CCN5CCCCC5)c4)oc3c2)ccn1 [Compound 58, 4-{2-[3-(2-Piperidin-1-yl-ethyl)-phenylamino]-benzooxazol-6-yloxy}-pyridine-2-carboxylic acid methylamide] | – | – | 30%
100% | – | 78% | 24% | – | – | O[C@@H]1CCCC[C@H]1Nc1nc2ccc(Oc3ccnc(-c4ccc(F)cc4)c3)cc2s1 [Example 288, (1R,2R)-2-(6-(2-(4-fluorophenyl)pyridin-4-yloxy)benzo[d]thiazol-2-ylamino)cyclohexanol] | 70% | – | –
